These results are taken from patent US20170334899A1, “AMINO-SUBSTITUTED ISOTHIAZOLES” (Bayer Pharma Aktiengesellschaft, priority 2014, published 2017).

One experiment deals with HeLa. Briefly: Proliferation assay (crystal violet), HeLa. Type of experiment: cell-based. To be noted: Homo sapiens, HeLa, 96 h, HeLa cells; 4 days incubation; crystal violet staining; read-out: IC50 inhibition of proliferation, HeLa. A digest of the protocol: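 Seed 1000–5000 cells/well, 10% FCS; 24 h later replace medium and add compound (0.001–10 μM, 0.5% DMSO); incubate 4 d; glutaraldehyde fix, 0.1% crystal violet pH 3.0, elute with 10% acetic acid; A595; 4-parameter IC50.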

Another experiment has as its target T1, CDK2/CycE (Homo sapiens, UniProt P24941).
T1 construct: GST; purchased ProQinase GmbH (Freiburg, Germany); host or cells: insect cells (Sf9)
As to the kind of experiment: CDK2/CycE kinase assay (TR-FRET). Type of experiment: biochemical. To be noted: avg, read-out: CDK2 avg (IC50 [mol/l]). The procedure, abridged:
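GST-tagged human CDK2 and CycE from Sf9 cells, preincubated 15 min with compound, then 25 min at 22° C. with 10 μM ATP and 0.75 μM biotinylated Rb-derived peptide (final). Phospho-substrate read by TR-FRET (anti-pRB pSer807/pSer811, Eu anti-mouse IgG, streptavidin-XL665), 665/620 nm ratio, normalised to no-inhibitor and no-enzyme controls.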

For the molecule `Cc1nsc(Nc2cnc3ccccc3n2)c1C(=O)Nc1cccc(C(=O)N[C@H](C(=O)OC(C)(C)C)[C@@H](C)OC(C)(C)C)c1` [Example 57, tert-Butyl O-tert-butyl-N-[3-({[3-methyl-5-(quinoxalin-2-ylamino)-1,2-thiazol-4 yl]carbonyl}amino)-benzoyl]threoninate], the IC50 in the experiment on HeLa was 10 µM; at CDK2/CycE it was not below 20 µM.

Take `Cc1nsc(Nc2cnc(C(F)(F)F)cn2)c1C(=O)Nc1ccc(O[C@@H]2CN(CC(F)(F)F)C[C@@H]2F)nc1` [Example 410, N-(6-{[(3R,4S)-4-Fluoro-1-(2,2,2-trifluoroethyl)pyrrolidin-3-yl]oxy}pyridin-3-yl)-3-methyl-5-{[5-(trifluoromethyl)pyrazin-2-yl]amino}-1,2-thiazole-4-carboxamide]: the IC50 in the experiment on HeLa is 0.17 µM; at CDK2/CycE, more than 20 µM.

Consider `Cc1nsc(Nc2cnc3ccccc3n2)c1C(=O)Nc1cccc(C(=O)OC(C)(C)C)c1` [Example 49, tert-Butyl 3-({[3-methyl-5-(quinoxalin-2-ylamino)-1,2-thiazol-4-yl]carbonyl}amino)-benzoate], for which the figures for the IC50 in the experiment with HeLa and on CDK2/CycE were 0.89 µM and not below 20 µM, respectively.

Regarding `Cc1nsc(Nc2cnc(C(F)(F)F)cn2)c1C(=O)Nc1ccc(CCC2CCN(CCC(F)(F)F)CC2)nc1` [Example 420, 3-Methyl-5-{[5-(trifluoromethyl)pyrazin-2-yl]amino}-N-(6-{2-[1-(3,3,3-trifluoro-propyl)piperidin-4-yl]ethyl}pyridin-3-yl)-1,2-thiazole-4-carboxamide], the results for the IC50 in the experiment with HeLa and on CDK2/CycE were 0.63 µM and more than 20 µM, respectively.

As for `Cc1nsc(Nc2ccc(C#N)cn2)c1C(=O)Nc1ccc(OC2CCCN(CC(F)F)C2)nc1` (centres unmarked) [Example 39, 5-[(5-Cyanopyridin-2-yl)amino]-N-(6-{[1-(2,2-difluoroethyl)piperidin-3-yl]oxy}-pyridin-3-yl)-3-methyl-1,2-thiazole-4-carboxamide], the IC50 in the experiment with HeLa is 1.1 µM; on CDK2/CycE, not below 20 µM.

As to `Cc1nsc(Nc2cnc3ccccc3n2)c1C(=O)Nc1cccc(C(=O)N[C@@H](CCC(N)=O)C(=O)OC(C)(C)C)c1` [Example 56, tert-butyl N^2-[3-({[3-methyl-5-(quinoxalin-2-ylamino)-1,2-thiazol-4-yl]carbonyl}amino)-benzoyl]glutaminate], the IC50 in the experiment on HeLa was 9.8 µM; at CDK2/CycE it was not below 20 µM.

Turning to `Cc1nsc(Nc2cnc3ccccc3n2)c1C(=O)Nc1cccc(C(=O)NC(C)(C)C)c1` [Example 53, N-[3-(tert-Butylcarbamoyl)-phenyl]-3-methyl-5-(quinoxalin-2-ylamino)-1,2-thiazole-4-carboxamide], the IC50 was 2.7 µM with HeLa and not below 20 µM at CDK2/CycE.

On to `Cc1nsc(Nc2ccc(C#N)cn2)c1C(=O)Nc1ccc(OC2CCCN(C(=O)OC(C)(C)C)C2)nc1` (centres unmarked) [Example 36, tert-Butyl 3-({5-[({5-[(5-cyanopyridin-2-yl)amino]-3-methyl-1,2-thiazol-4-yl}-carbonyl)amino]pyridin-2-yl}oxy)piperidine-1-carboxylate], for which the IC50 in the experiment on HeLa was 1.1 µM; at CDK2/CycE it was not below 20 µM.

Turning to `CC(=O)Nc1ccc(NC(=O)c2c(C)nsc2Nc2ccc(C#N)cn2)cn1` [Example 435, N-(6-Acetamidopyridin-3-yl)-5-[(5-cyanopyridin-2-yl)amino]-3-methyl-1,2-thiazole-4-carboxamide], the IC50 with HeLa is more than 10 µM; at CDK2/CycE it was more than 20 µM.

Take `CCCN1C[C@H](F)[C@H](Oc2ccc(NC(=O)c3c(C)nsc3Nc3cnc(C(F)(F)F)cn3)cn2)C1` [Example 408, N-(6-{[(3R,4S)-4-Fluoro-1-propylpyrrolidin-3-yl]oxy}pyridin-3-yl)-3-methyl-5-{[5-(trifluoromethyl)pyrazin-2-yl]amino}-1,2-thiazole-4-carboxamide]: the IC50 in the experiment on HeLa is 0.26 µM; on CDK2/CycE, more than 20 µM.
